Assay results: PMC7072329, “Discovery of Kynurenines Containing Oligopeptides as Potent Opioid Receptor Agonists” (Biomolecules, 2020)
Where two headings read alike, the source gives them in different places. Where a SMILES comes first, the peptide text is derived from it. [ ]: non-standard residue; d: D form. Kyn = Nc1ccccc1C(=O)C[C@H](N)C(=O)O

Assays:
CD-1 male mice [1] = assay: tail flick test; assay type: in vivo; conditions: i.c.v., 10 μg/10 μL, 15 to 120 min
Protocol: (§1) In our experiments, we used CD-1 male mice (Harlan, Italy, 25–30 g) maintained in colony, housed in cages (7 mice per cage) under standard light/dark cycle (from 7:00 a.m. to 7:00 p.m.), temperature (21 ± 1 °C) and relative humidity (60% ± 10%) for at least 1 week. Food and water were available ad libitum. The Service for Biotechnology and Animal Welfare of the Istituto Superiore di Sanità and the Italian Ministry of Health authorized the experimental protocol according to Legislative Decree 26/14.
DMSO was purchased from Merck (Rome, Italy). Peptides solutions were freshly prepared using saline containing 0.9% NaCl and DMSO in the ratio DMSO/saline 1:5 v/v every experimental day. […]
The tail flick latency was obtained using a commercial unit (Ugo Basile, Gemonio, Italy), consisting of an infrared radiant light source (100 W, 15 V bulb) focused onto a photocell utilizing an aluminum parabolic mirror. […] Radiant heat was focused 3–4 cm from the tip of the tail, and the latency (s) of the tail withdrawal to the thermal stimulus was recorded. […] The baseline latency was calculated as mean of three readings recorded before testing at intervals of 15 min and the time course of latency determined at 15, 30, 45, 60, 90, and 120 min after treatment. […]
Experimental data were expressed as mean ± s.e.m. […]

CD-1 male mice [2] = assay: formalin test; assay type: in vivo; conditions: s.c. in hind paw, 100 μg/20 μL, 15 min before formalin
Protocol: as §1
DMSO was purchased from Merck (Rome, Italy). Peptides solutions were freshly prepared using saline containing 0.9% NaCl and DMSO in the ratio DMSO/saline 1:5 v/v every experimental day. These solutions were injected at a volume of 10 μL/mouse for intracerebroventricular (i.c.v.) administrations or at a volume of 20 μL/mouse for subcutaneous administrations.
In the formalin test, the injection of a dilute solution of formalin (1%, 20 μL/paw) into the dorsal surface of the mouse hind paw evoked biphasic nociceptive behavioral responses, such as licking, biting the injected paw, or both, occurring from 0 to 10 min after formalin injection (the early phase) and a prolonged phase, occurring from 15 to 40 min (the late phase). Before the test, mice were individually placed in a Plexiglas observation cage (30 × 14 × 12 cm) for one hour, to acclimatize to the testing environment. The total time the animal spent licking or biting its paw during the early and late phase of formalin-induced nociception was recorded.
Experimental data were expressed as mean ± s.e.m. In the tail flick test, significant differences among the groups were evaluated with two-way ANOVA followed by Sidak’s multiple comparisons test. Formalin test data were analyzed by using one-way ANOVA, followed by Holm–Sidak’s multiple comparisons test. […] Statistical significance was set at p < 0.05. The data and statistical analysis comply with the recommendations on experimental design and analysis in pharmacology.
Early phase represents the formalin-induced nociceptive behavior recorded from 0 to 10 min after formalin injection; late phase is for the formalin-induced nociceptive behavior recorded from 15 to 40 min after formalin injection. V is for vehicle-treated animals. Statistical analysis: one-way ANOVA followed by Holm–Sidak’s multiple comparisons test. ** is for p < 0.01 and *** is for p < 0.001 vs. V. n = 7.

μ, δ, κ-receptors = system: μ, δ, κ-receptors; set-up: method as in PMID 25478797; conditions: cited from earlier work
NMDA receptor [3] = system: NMDA receptor; set-up: method as in earlier work; conditions: cited from earlier work
NMDA receptor [4] = assay: [3H]MK-801 competition binding, rat brain membrane; conditions: read-out: Ki + S.E.M., displacement of [3H]MK-801
δ-opioid receptor = target: T1, δ-opioid receptor (Rattus norvegicus, UniProt P33533); assay: biochemical; assay type: binding; conditions: DOR; rat brain membrane; from IC50 by Cheng–Prusoff; read-out: Ki + S.E.M., displacement of [3H]Ile5,6Delt II
T1 construct: aliquots of frozen rat and guinea pig brain membrane homogenates were thawed and suspended in 50 mM Tris-HCl buffer; from tissue; host or cells: Wistar rat brain membrane homogenate
T1 sequence (P33533 whole entry): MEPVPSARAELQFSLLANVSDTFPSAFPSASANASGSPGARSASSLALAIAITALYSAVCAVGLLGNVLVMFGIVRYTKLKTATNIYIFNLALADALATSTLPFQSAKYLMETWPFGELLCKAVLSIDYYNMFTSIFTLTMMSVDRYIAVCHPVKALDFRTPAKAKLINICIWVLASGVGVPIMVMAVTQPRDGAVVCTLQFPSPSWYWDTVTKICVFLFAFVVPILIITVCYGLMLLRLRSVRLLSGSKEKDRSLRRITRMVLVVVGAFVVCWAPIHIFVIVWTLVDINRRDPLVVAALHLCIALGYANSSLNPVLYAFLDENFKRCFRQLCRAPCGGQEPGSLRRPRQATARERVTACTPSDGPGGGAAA

κ-opioid receptor = target: T2, κ-opioid receptor (Cavia porcellus, UniProt P41144); assay: biochemical; assay type: binding; conditions: KOR; guinea pig brain membrane; from IC50 by Cheng–Prusoff; read-out: Ki + S.E.M., displacement of [3H]HS665
T2 construct: aliquots of frozen rat and guinea pig brain membrane homogenates were thawed and suspended in 50 mM Tris-HCl buffer; from tissue; host or cells: guinea pig brain membrane homogenate
T2 sequence (P41144 whole entry): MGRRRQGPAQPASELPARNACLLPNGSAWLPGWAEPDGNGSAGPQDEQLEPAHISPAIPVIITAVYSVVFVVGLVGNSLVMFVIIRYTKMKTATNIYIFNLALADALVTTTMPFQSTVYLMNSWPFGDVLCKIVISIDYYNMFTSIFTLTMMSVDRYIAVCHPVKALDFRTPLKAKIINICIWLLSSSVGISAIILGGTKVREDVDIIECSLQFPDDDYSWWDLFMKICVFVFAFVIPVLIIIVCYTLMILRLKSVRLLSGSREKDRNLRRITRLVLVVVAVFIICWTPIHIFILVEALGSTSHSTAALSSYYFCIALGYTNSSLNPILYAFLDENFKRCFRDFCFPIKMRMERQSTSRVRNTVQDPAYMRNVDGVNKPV

G-protein [5] = assay: functional [35S]GTPγS binding, rat brain membrane homogenates; assay type: biochemical; conditions: for Potency Log EC50 ± S.E.M. / Maximal Stimulation (Efficacy) Emax ± S.E.M.: dose-response curves; for Maximal Stimulation (Efficacy) Emax ± S.E.M.: basal = 100%; for Emax + S.E.M., Ligand: ligand alone, bar graphs Figure S3
Protocol: (§2) Rats and guinea pigs were decapitated, and their brains were quickly removed. The brains were used for membrane preparation following the procedure reported by Benyhe for binding and [^35S]GTPγS binding experiments, in agreement with the protocol of Zádor et al..
(§3) Homogenization of brains was performed in 30 volumes (v/w) of ice-cold 50 mM Tris-HCl pH 7.4 buffer with a Teflon-glass Braun homogenizer at 1500 rpm. The centrifuge was settled at 18,000 rpm for 20 min at 4 °C, the resulting supernatant discarded, and the pellet taken up in the original volume of Tris-HCl buffer. Incubation of homogenate at 37 °C for 30 min was performed in a shaking water-bath. Five volumes of 50 mM Tris-HCl pH 7.4 buffer were used to suspend the final pellet at −80 °C. For the [^35S]GTPγS binding experiments, the brains were homogenized with a Dounce in 5 volumes (v/w) of ice-cold TEM (Tris-HCl, EGTA, MgCl2) at −80 °C. The protein content of the membrane preparation was determined by the method of Bradford, BSA being used as a standard.
(§4) The functional [^35S]GTPγS binding experiments were performed as previously described. Briefly the membrane homogenates were incubated at 30 °C for 60 min in Tris-EGTA buffer (pH 7.4) composed of 50 mM Tris-HCl, 1 mM EGTA, 3 mM MgCl2, 100 mM NaCl, containing 20 MBq/0.05 cm^3 [^35S]GTPγS (0.05 nM) and increasing concentrations (10^−10 to 10^−5 M) of ligands. The experiments were performed in the presence of excess GDP (30 μM) in a final volume of 1 mL. Total binding was measured in the absence of test compounds, non-specific binding was determined in the presence of 10 μM unlabeled GTPγS. The reaction was terminated by rapid filtration under vacuum and washed three times with 5 mL ice-cold 50 mM Tris-HCl (pH 7.4) buffer through Whatman GF/B glass fibers. The radioactivity of the filters was detected in an UltimaGold^TM MV aqueous scintillation cocktail with a Packard Tricarb 2300TR liquid scintillation counter.
(§5) Experimental data are presented as means ± S.E.M. Sigmoid dose-response curves were fitted with GraphPad Prism 5.0 (GraphPad Prism Software Inc., San Diego, CA, USA). An unpaired t-test with two-tailed p value was performed to determine the significance level. In the competition binding assays, the ‘One site competition’ fitting was used to establish the equilibrium binding affinity (Ki value).
[35S]GTPγS binding assay in rat brain membrane homogenates. Figure S2 represents the specific binding of [35S]GTPγS in percentage in presence of increasing concentrations (10-10 - 10^-5 M) of the indicated ligands. “Total” on the x-axis indicates the basal activity of the monitored G-protein, which is measured in the absence of the ligands and represents the total specific binding of [35S]GTPγS. The level of basal activity was defined as 100% and it is presented with a dotted line. Points represent means ± S.E.M. for at least three experiments […]
(§6) Figure S3. The effect of novel oligopeptides on G-protein activity in [35S]GTPγS binding assays in the absence or presence of the selective MOR antagonist cyprodime (Cyp) and the selective DOR antagonist naltrindole (NTI) in rat brain membrane homogenates (Figure A) and the selective KOR antagonist norbinaltorphine (nor-BNI) in guinea pig brain membrane homogenates (Figure B). The level of basal activity was defined as 100% and it is presented with a dotted line. Points represent means ± S.E.M. for at least three experiments performed

G-protein [6] = assay: functional [35S]GTPγS binding, guinea pig brain membrane homogenates; assay type: biochemical; conditions: ligand alone
Protocol: as §2, §3, §4, §5
as §6, with “The level of basal activity was defined as 100% and it is presented with a dotted line. Points represent means ± S.E.M. for at least three experiments performed” left out

[7] = set-up: method as in PMID 21598333; conditions: cited from earlier work
[8] = NMDA system, rat brain membrane, from IC50 by Cheng–Prusoff

Compound	Ki (κ-opioid receptor) [µM]	Potency Log EC50 ± S.E.M. (G-protein [5])	Maximal Stimulation (Efficacy) Emax ± S.E.M. (G-protein [5]) [%]	Emax + S.E.M., Ligand (G-protein [5]) [%]	Ki (NMDA receptor [4]) [µM]	Emax + S.E.M., Ligand (G-protein [6]) [%]	also measured
C[C@@H](NC(=O)[C@@H](N)Cc1ccc(O)cc1)C(=O)NCC(=O)N(C)[C@@H](Cc1ccccc1)C(=O)NCCO [DAMGO, Tyr-D-Ala-Gly-(NMe)Phe-Gly-ol, reference compound]							effect on time of response to thermal nociceptive stimuli (tail flick) (CD-1 male mice [1]): greatly increase the time of response to thermal nociceptive stimuli; formalin-induced nociceptive behavior, early phase (CD-1 male mice [2]; 0 to 10 min): reduction of the nociceptive behavior both early and late; formalin-induced nociceptive behavior, late phase (CD-1 male mice [2]; 15 to 40 min): reduction of the nociceptive behavior both early and late
CN(C)CCNC(=O)c1cc(=O)c2ccccc2[nH]1.Cl [KYNA1]							direct binding to μ, δ, κ-receptors in vitro (μ, δ, κ-receptors): did not directly bind
O=C(O)c1cc(=O)c2ccccc2[nH]1 [KYNA, kynurenic acid]							direct binding to μ, δ, κ-receptors in vitro (μ, δ, κ-receptors): did not directly bind; affinity for NMDA receptor (NMDA receptor [3]): micromolar affinity; Ki (NMDA receptor [4]; [8]): > 10 µM
Nc1ccccc1C(=O)C[C@H](N)C(=O)O [L-kyn, L-kynurenine, reference compound]							Ki (NMDA receptor [4]; [8]): > 10 µM
NC(=O)[C@H](Cc1ccccc1)NC(=O)[C@H](CC(=O)c1ccccc1N)NC(=O)[C@@H]1CCCN1C(=O)[C@@H](N)Cc1ccc(O)cc1 [Peptide K2]	1.043 ± 0.0003	−7.535 ± 0.354	121.6 ± 2.5	129.9 ± 8.2	> 10	92.8 ± 2.0	Ki (δ-opioid receptor): > 10 µM
NC(=O)[C@H](CC(=O)c1ccccc1N)NC(=O)[C@H](Cc1ccccc1)NC(=O)[C@@H]1CCCN1C(=O)[C@@H](N)Cc1ccc(O)cc1 [Peptide K3] (H-YPF[Kyn]-NH2)	> 10	−6.993 ± 0.422	114.0 ± 2.1	118.9 ± 3.0	> 10	95.2 ± 2.2	Ki (δ-opioid receptor): 0.159 ± 0.0016 µM
COC(=O)[C@H](CC(=O)c1ccccc1N)NC(=O)[C@H](Cc1ccccc1)NC(=O)CNC(=O)[C@@H](C)NC(=O)[C@@H](N)Cc1ccc(O)cc1 [Peptide K4] (H-Y[dA]GF[Kyn]-OMe)	> 10	−6.073 ± 0.172	155.5 ± 4.8	160.6 ± 5.7	> 10	125.2 ± 2.0	
C[C@@H](NC(=O)[C@@H](N)Cc1ccc(O)cc1)C(=O)NCC(=O)N[C@@H](Cc1ccccc1)C(=O)N[C@@H](CC(=O)c1ccccc1N)C(=O)O [Peptide K5] (H-Y[dA]GF[Kyn]-OH)	> 10						
FP-Kyn-L-NH2							concentration with opioid activity [7]: 10^−7 M
